From ChEMBL document CHEMBL5338795, “Novel Triazoles with Potent and Broad-Spectrum Antifungal Activity In Vitro and In Vivo” (J Med Chem, 2023)
≈ marks a conversion by molar mass, not a printed value. Blank lines part the entries; values can stand above or below the compound they belong to.

Assays:
Format in all cases: functional
Candida albicans [1] = assay: Antifungal activity against Candida albicans SC5314 assessed as reduction in fungal growth incubated for 24 hrs by CLSI based microdilution analysis
[2] = tested on: Meyerozyma guilliermondii; assay: Antifungal activity against Meyerozyma guilliermondii ATCC 6260 assessed as reduction in fungal growth incubated for 24 hrs by CLSI based microdilution analysis
Candida parapsilosis = assay: Antifungal activity against Candida parapsilosis ATCC 22019 assessed as reduction in fungal growth incubated for 24 hrs by CLSI based microdilution analysis; conditions: Lodderomyces parapsilosis
Candida tropicalis = assay: Antifungal activity against Candida tropicalis ATCC 750 assessed as reduction in fungal growth incubated for 24 hrs by CLSI based microdilution analysis
Nakaseomyces glabratus = assay: Antifungal activity against Candida glabrata ATCC 15126 assessed as reduction in fungal growth incubated for 24 hrs by CLSI based microdilution analysis
Cryptococcus neoformans = assay: Antifungal activity against Cryptococcus neoformans CGMCC3 1563 assessed as reduction in fungal growth incubated for 72 hrs by CLSI based microdilution analysis
Aspergillus fumigatus = assay: Antifungal activity against Aspergillus fumigatus CGMCC3 7795 assessed as reduction in fungal growth incubated for 48 hrs by CLSI based microdilution analysis
Candida albicans [3] = assay: Antifungal activity against fluconazole-resistant Candida albicans 102 assessed as inhibition of fungal growth measured for 24 hrs by CLSI based microdilution analysis
Candida albicans [4] = assay: Antifungal activity against fluconazole-resistant Candida albicans 13 assessed as inhibition of fungal growth measured for 24 hrs by CLSI based microdilution analysis
Candida albicans [5] = assay: Antifungal activity against fluconazole-resistant Candida albicans 15 assessed as inhibition of fungal growth measured for 24 hrs by CLSI based microdilution analysis
Candida albicans [6] = assay: Antifungal activity against fluconazole-resistant Candida albicans 901 assessed as inhibition of fungal growth measured for 24 hrs by CLSI based microdilution analysis
Candida albicans [7] = assay: Antifungal activity against fluconazole-resistant Candida albicans 24D assessed as inhibition of fungal growth measured for 24 hrs by CLSI based microdilution analysis
Candida albicans [8] = assay: Antifungal activity against fluconazole-resistant Candida albicans 112869 assessed as inhibition of fungal growth measured for 24 hrs by CLSI based microdilution analysis

Structure (SMILES): OC(CN1CCN(CCn2ccc3cc(Br)cnc32)CC1)(Cn1cncn1)c1ccc(F)cc1F (stereo unspecified)
MIC80 (Candida albicans [1]): 0.062 µg/mL (≈ 0.113 µM)

Structure (SMILES): OC(CN1CCN(CCn2ccc3cc(Cl)c(Cl)cc32)CC1)(Cn1cncn1)c1ccc(F)cc1F (stereo unspecified)
MIC80 (Candida albicans [1]): 0.031 µg/mL (≈ 0.0579 µM)
MIC80 [2]: 0.125 µg/mL (≈ 0.233 µM)
MIC80 (Candida parapsilosis): 0.125 µg/mL (≈ 0.233 µM)
MIC80 (Candida tropicalis): 0.312 µg/mL (≈ 0.583 µM)
MIC80 (Nakaseomyces glabratus): 0.312 µg/mL (≈ 0.583 µM)
MIC80 (Cryptococcus neoformans): 0.062 µg/mL (≈ 0.116 µM)
MIC80 (Aspergillus fumigatus): 5 µg/mL (≈ 9.34 µM)
MIC80 (Candida albicans [3]): 0.062 µg/mL (≈ 0.116 µM)
MIC80 (Candida albicans [4]): 0.062 µg/mL (≈ 0.116 µM)
MIC80 (Candida albicans [5]): 0.625 µg/mL (≈ 1.17 µM)
MIC80 (Candida albicans [6]): 2.5 µg/mL (≈ 4.67 µM)
MIC80 (Candida albicans [7]): 0.062 µg/mL (≈ 0.116 µM)
MIC80 (Candida albicans [8]): 0.25 µg/mL (≈ 0.467 µM)

Structure (SMILES): CN1CCN(CC(O)(Cn2cncn2)c2ccc(F)cc2F)CC1 (stereo unspecified)
MIC80 (Candida albicans [1]): 25 µg/mL (≈ 74.1 µM)

Structure (SMILES): OC(CN1CCN(CCCCCn2ccc3cc(Br)ccc32)CC1)(Cn1cncn1)c1ccc(F)cc1F (stereo unspecified)
MIC80 (Candida albicans [1]): 0.125 µg/mL (≈ 0.213 µM)

Structure (SMILES): OC(CN1CCN(CCc2cccc3ccccc23)CC1)(Cn1cncn1)c1ccc(F)cc1F (stereo unspecified)
MIC80 (Candida albicans [1]): 0.25 µg/mL (≈ 0.523 µM)

Structure (SMILES): O=[N+]([O-])c1ccc2c(ccn2CCCN2CCN(CC(O)(Cn3cncn3)c3ccc(F)cc3F)CC2)c1 (stereo unspecified)
MIC80 (Candida albicans [1]): 0.031 µg/mL (≈ 0.059 µM)
MIC80 [2]: 0.125 µg/mL (≈ 0.238 µM)
MIC80 (Candida parapsilosis): 0.062 µg/mL (≈ 0.118 µM)
MIC80 (Candida tropicalis): 0.312 µg/mL (≈ 0.594 µM)
MIC80 (Nakaseomyces glabratus): 0.625 µg/mL (≈ 1.19 µM)
MIC80 (Cryptococcus neoformans): 0.031 µg/mL (≈ 0.059 µM)
MIC80 (Aspergillus fumigatus): 1.25 µg/mL (≈ 2.38 µM)
MIC80 (Candida albicans [3]): 0.031 µg/mL (≈ 0.059 µM)
MIC80 (Candida albicans [4]): 0.062 µg/mL (≈ 0.118 µM)
MIC80 (Candida albicans [5]): 0.625 µg/mL (≈ 1.19 µM)
MIC80 (Candida albicans [6]): 1.25 µg/mL (≈ 2.38 µM)
MIC80 (Candida albicans [7]): 0.031 µg/mL (≈ 0.059 µM)
MIC80 (Candida albicans [8]): 0.062 µg/mL (≈ 0.118 µM)

Structure (SMILES): OC(CN1CCN(CCCn2ccc3ccc(Cl)cc32)CC1)(Cn1cncn1)c1ccc(F)cc1F (stereo unspecified)
MIC80 (Candida albicans [1]): 0.062 µg/mL (≈ 0.12 µM)
MIC80 [2]: 0.125 µg/mL (≈ 0.243 µM)
MIC80 (Candida parapsilosis): 0.125 µg/mL (≈ 0.243 µM)
MIC80 (Candida tropicalis): 0.625 µg/mL (≈ 1.21 µM)
MIC80 (Nakaseomyces glabratus): 0.312 µg/mL (≈ 0.606 µM)
MIC80 (Cryptococcus neoformans): 0.031 µg/mL (≈ 0.0602 µM)
MIC80 (Aspergillus fumigatus): 5 µg/mL (≈ 9.71 µM)
MIC80 (Candida albicans [3]): 0.062 µg/mL (≈ 0.12 µM)
MIC80 (Candida albicans [4]): 0.062 µg/mL (≈ 0.12 µM)
MIC80 (Candida albicans [5]): 2.5 µg/mL (≈ 4.85 µM)
MIC80 (Candida albicans [6]): 5 µg/mL (≈ 9.71 µM)
MIC80 (Candida albicans [7]): 0.062 µg/mL (≈ 0.12 µM)
MIC80 (Candida albicans [8]): 0.25 µg/mL (≈ 0.485 µM)

Structure (SMILES): OC(CN1CCN(CCCCCCCCCCn2ccc3cc(Cl)ccc32)CC1)(Cn1cncn1)c1ccc(F)cc1F (stereo unspecified)
MIC80 (Candida albicans [1]): 0.5 µg/mL (≈ 0.815 µM)

Structure (SMILES): OC(CN1CCN(CCCn2ccc3ccc(Br)cc32)CC1)(Cn1cncn1)c1ccc(F)cc1F (stereo unspecified)
MIC80 (Candida albicans [1]): 0.062 µg/mL (≈ 0.111 µM)
MIC80 [2]: 0.031 µg/mL (≈ 0.0554 µM)
MIC80 (Candida parapsilosis): 0.062 µg/mL (≈ 0.111 µM)
MIC80 (Candida tropicalis): 0.312 µg/mL (≈ 0.558 µM)
MIC80 (Nakaseomyces glabratus): 0.312 µg/mL (≈ 0.558 µM)
MIC80 (Cryptococcus neoformans): 0.031 µg/mL (≈ 0.0554 µM)
MIC80 (Aspergillus fumigatus): 1.25 µg/mL (≈ 2.23 µM)
MIC80 (Candida albicans [3]): 0.125 µg/mL (≈ 0.223 µM)
MIC80 (Candida albicans [4]): 0.031 µg/mL (≈ 0.0554 µM)
MIC80 (Candida albicans [5]): 2.5 µg/mL (≈ 4.47 µM)
MIC80 (Candida albicans [6]): 2.5 µg/mL (≈ 4.47 µM)
MIC80 (Candida albicans [7]): 0.125 µg/mL (≈ 0.223 µM)
MIC80 (Candida albicans [8]): 0.5 µg/mL (≈ 0.894 µM)

Structure (SMILES): Cc1ccc(S(=O)(=O)N2CCN(CC(O)(Cn3cncn3)c3ccc(F)cc3F)CC2)cc1 (stereo unspecified)
MIC80 (Candida albicans [1]): 0.125 µg/mL (≈ 0.262 µM)

Structure (SMILES): Cc1ccc2oc(=O)c(C(=O)N3CCN(CC(O)(Cn4cncn4)c4ccc(F)cc4F)CC3)cc2c1 (stereo unspecified)
MIC80 (Candida albicans [1]): 0.125 µg/mL (≈ 0.245 µM)

Structure (SMILES): O=S(=O)(c1ccc(F)cc1)N1CCN(CC(O)(Cn2cncn2)c2ccc(F)cc2F)CC1 (stereo unspecified)
MIC80 (Candida albicans [1]): 0.125 µg/mL (≈ 0.26 µM)

Structure (SMILES): COc1ccc2c(ccn2CCCCCCN2CCN(CC(O)(Cn3cncn3)c3ccc(F)cc3F)CC2)c1 (stereo unspecified)
MIC80 (Candida albicans [1]): 0.25 µg/mL (≈ 0.452 µM)

Structure (SMILES): COc1ccc2c(cnn2CCN2CCN(CC(O)(Cn3cncn3)c3ccc(F)cc3F)CC2)c1 (stereo unspecified)
MIC80 (Candida albicans [1]): 0.062 µg/mL (≈ 0.125 µM)

Structure (SMILES): COc1ccc2c(ccn2CCCCCCCCCN2CCN(CC(O)(Cn3cncn3)c3ccc(F)cc3F)CC2)c1 (stereo unspecified)
MIC80 (Candida albicans [1]): 0.5 µg/mL (≈ 0.841 µM)

Structure (SMILES): OC(CN1CCN(CCn2c3ccccc3c3ccccc32)CC1)(Cn1cncn1)c1ccc(F)cc1F (stereo unspecified)
MIC80 (Candida albicans [1]): 0.125 µg/mL (≈ 0.242 µM)

Structure (SMILES): O=C(c1ccc2c(c1)OCO2)N1CCN(CC(O)(Cn2cncn2)c2ccc(F)cc2F)CC1 (stereo unspecified)
MIC80 (Candida albicans [1]): 0.25 µg/mL (≈ 0.53 µM)

Now from value to compound:

MIC80 (Candida albicans [1]): 0.25 µg/mL (≈ 0.42 µM)
Structure (SMILES): OC(CN1CCN(CCn2c3ccccc3c3cc(Br)ccc32)CC1)(Cn1cncn1)c1ccc(F)cc1F (stereo unspecified)

MIC80 (Candida albicans [1]): 0.25 µg/mL (≈ 0.487 µM)
Structure (SMILES): O=C(c1cc2cc(F)ccc2oc1=O)N1CCN(CC(O)(Cn2cncn2)c2ccc(F)cc2F)CC1 (stereo unspecified)

MIC80 (Candida albicans [1]): 50 µg/mL (≈ 107 µM)
Structure (SMILES): O[C@](CN1CCN(CCn2ncc3ccccc32)CC1)(Cn1cncn1)c1ccc(F)cc1F

MIC80 (Candida albicans [1]): 0.031 µg/mL (≈ 0.0664 µM)
Structure (SMILES): OC(CN1CCN(CCn2ccc3ccccc32)CC1)(Cn1cncn1)c1ccc(F)cc1F (stereo unspecified)

MIC80 (Candida albicans [1]): 0.25 µg/mL (≈ 0.388 µM)
Structure (SMILES): OC(CN1CCN(CCCCCCCCCn2ccc3cc(Br)ccc32)CC1)(Cn1cncn1)c1ccc(F)cc1F (stereo unspecified)

MIC80 (Candida albicans [1]): 0.25 µg/mL (≈ 0.417 µM)
Structure (SMILES): OC(CN1CCN(CCCCCCCCCn2ccc3cc(Cl)ccc32)CC1)(Cn1cncn1)c1ccc(F)cc1F (stereo unspecified)

MIC80 (Candida albicans [1]): 0.125 µg/mL (≈ 0.237 µM)
Structure (SMILES): OC(CN1CCN(CCCCCn2ccc3ccc(F)cc32)CC1)(Cn1cncn1)c1ccc(F)cc1F (stereo unspecified)

MIC80 (Candida albicans [1]): 0.062 µg/mL (≈ 0.104 µM)
Structure (SMILES): OC(CN1CCN(CCn2ncc3cc(I)ccc32)CC1)(Cn1cncn1)c1ccc(F)cc1F (stereo unspecified)

MIC80 (Candida albicans [1]): 0.25 µg/mL (≈ 0.515 µM)
Structure (SMILES): O=C(c1ccc2c(c1)OCCO2)N1CCN(CC(O)(Cn2cncn2)c2ccc(F)cc2F)CC1 (stereo unspecified)

MIC80 (Candida albicans [1]): 0.062 µg/mL (≈ 0.125 µM)
Structure (SMILES): O=C(c1cc2ccccc2oc1=O)N1CCN(CC(O)(Cn2cncn2)c2ccc(F)cc2F)CC1 (stereo unspecified)

MIC80 (Candida albicans [1]): 0.125 µg/mL (≈ 0.251 µM)
Structure (SMILES): O=S(=O)(c1ccc(Cl)cc1)N1CCN(CC(O)(Cn2cncn2)c2ccc(F)cc2F)CC1 (stereo unspecified)
